Measurements reported in publication PMC3849647, “Pharmacokinetics and biodistribution of the cyclin-dependent kinase inhibitor -CR8- in mice” (BMC Pharmacology & Toxicology, 2013).
Where “and” joins values, the source holds several entries; their conditions need not be identical. Identical values can stand only once. Like-named read-outs stand apart in the source and are kept apart here.

Columns and labels:
[1] = given i.v. at the same dosage; cited from earlier work
[2] = bone marrow vs plasma; cited from earlier work
[3] = Pharmacokinetics of CR8 in mouse plasma after oral and i.v. administration (HPLC-UV); format: in vivo, mice
Protocol: 70 μl plasma was added to 140 μl methanol and vortexed for 15 sec. Samples were centrifuged at 10000 g for 10 minutes, and 50 μl from the supernatant were injected into the HPLC system.
Female BALB/c mice 8–10 weeks old and weighing 18–21 g were obtained from Scanbur, Sollentuna, Sweden. The mice were allowed to acclimatize to their surroundings for one week before starting treatment. The mice were fed pelleted food and water ad libitum.
CR8 was dissolved in DMSO: 50 mM HCl (10:90 v/v). The first group of mice received i.v. doses of CR8 (50 mg/kg body weight), the second received oral doses of CR8 (100 mg/kg body weight) and three control mice received vehicle alone. Three mice were sacrificed at each time point and blood samples were collected by cardiac puncture into heparinized tubes at 10, 20, 30, 60 min, 2, 4, 6, 8 h post administration. Blood samples were centrifuged immediately after collection at 3000 g for 5 min at 4°C and the plasma was prepared as mentioned previously. Supernatants were collected and all samples were frozen at −20°C directly after preparation until further analysis by HPLC. Other organs including liver, spleen, kidneys, brain, adipose tissue and lungs were removed, washed and snap frozen immediately in liquid nitrogen. Bone marrow was flushed from both femurs and mononuclear cells were counted and frozen. The samples were stored at −20°C to avoid any metabolic activity.
Parameters including distribution volume of the central compartment, elimination rate constant, plasma maximum concentration and micro constants were estimated. Clearance (Cl) and distribution volume at the steady state were calculated from the primary parameters. The plasma concentration versus time curves (AUC) were calculated from the model derived parameters, and the elimination half-lives were calculated from the slope of the terminal elimination phase. Bone marrow data were derived after adjustment of concentrations to 10^9 cells (= approx. 1 g of tissue). The pharmacokinetic modeling was performed using WinNonlin version 5.2 (Pharsight, USA).
Oral bioavailability (F) defined as the fraction of the oral administered dose of CR8 that reaches the systemic circulation was calculated according to the following formula:
F=AUCpo∗doseIV/AUCIV∗dosepo

CDK = test system: CDK; parameters: method as in PMID 18574471; conditions: in-vitro; cited from earlier work
[4] = Stability of CR8 in plasma quality control samples and solution; format: physicochemical, human
Protocol: Four quality control samples at concentrations of 0.75, 1.5, 3.5 and 7.0 μg/ml were also prepared in triplicate and stored at room temperature, +4°C and −20°C for stability testing.
The stability of CR8 was determined in plasma samples using concentrations of 0.75, 1.5, 3.5 and 7.0 μg/ml (in triplicate). The samples were kept at room temperature, +4°C and −20°C and analyzed twice weekly for 2 months. Peak areas of all the samples were compared to peak areas obtained at time zero.

tumor cell lines = conditions: cited from earlier work
casein kinase 1 (CK1) = biological target: casein kinase 1 (CK1); parameters: method as in PMID 18574471; conditions: cited from earlier work
CDK5/p25 = test system: CDK5/p25; parameters: method as in PMID 18574471; conditions: cited from earlier work
[5] = Biodistribution of CR8 to mouse organs after oral administration; format: in vivo, mice; parameters: V2/F: unit not given here; conditions: for AUC / Beta-HL / V2/F / Cmax: single oral 100 mg/kg; for Tissue/plasma exposure ratio (% AUC organ vs. AUC plasma) / Kp: oral 100 mg/kg, 100 mg/kg; for Kp / Cmax: female, BALB/c, mouse; for Kp: po
Protocol: CR8 was dissolved in DMSO: 50 mM HCl (10:90 v/v). The first group of mice received i.v. doses of CR8 (50 mg/kg body weight), the second received oral doses of CR8 (100 mg/kg body weight) and three control mice received vehicle alone. […] Supernatants were collected and all samples were frozen at −20°C directly after preparation until further analysis by HPLC. Other organs including liver, spleen, kidneys, brain, adipose tissue and lungs were removed, washed and snap frozen immediately in liquid nitrogen. Bone marrow was flushed from both femurs and mononuclear cells were counted and frozen. The samples were stored at −20°C to avoid any metabolic activity. […] Femurs were removed and cleaned; bone marrow was flushed with 0.3 ml of PBS and single cell suspension was prepared by gentle flushing through needle and syringe. Nucleated cells were counted using Türk solution and bone marrow was stored at −20°C until assay. Parameters including distribution volume of the central compartment, elimination rate constant, plasma maximum concentration and micro constants were estimated. Clearance (Cl) and distribution volume at the steady state were calculated from the primary parameters. The plasma concentration versus time curves (AUC) were calculated from the model derived parameters, and the elimination half-lives were calculated from the slope of the terminal elimination phase. Bone marrow data were derived after adjustment of concentrations to 10^9 cells (= approx. 1 g of tissue). The pharmacokinetic modeling was performed using WinNonlin version 5.2 (Pharsight, USA).

CC[C@H](CO)Nc1nc(NCc2ccccc2)c2ncn(C(C)C)c2n1 [roscovitine]
Reported half-life [1]: approximately 1 hour | Distribution to bone marrow [2]: 1.5%

CC[C@H](CO)Nc1nc(NCc2ccc(-c3ccccn3)cc2)c2ncn(C(C)C)c2n1 [CR8]
Beta-HL ([3]; Plasma, single oral 100 mg/kg): 3.10 h | V2/F ([3]; Plasma, single oral 100 mg/kg): 21.0 | half-life ([3]; female, BALB/c, mouse, plasma, female BALB/c mice, read-out: Half-life (converted)): ~3 h | AUC ([3]; female, BALB/c, mouse, plasma, iv, 50 mg/kg, plasma, 50 mg/kg intravenously, read-out: AUC): ~45000 ng·h/mL | Cmax ([3]; female, BALB/c, mouse, plasma, iv, 50 mg/kg, plasma, i.v. bolus 50 mg/kg, estimated, read-out: Cmax (maximum reached concentration)): > 100000 ng/mL | AUC ([3]; female, BALB/c, mouse, plasma, iv, 50 mg/kg, plasma, i.v. bolus 50 mg/kg, mice, read-out: AUC (area under time plasma concentration curve)): 44400 ± 3300 ng·h/mL | half-life ([3]; female, BALB/c, mouse, plasma, iv, 50 mg/kg, plasma, i.v. bolus 50 mg/kg, read-out: Tα (first elimination half-life) (converted)): 0.11 ± 0.01 h | half-life ([3]; female, BALB/c, mouse, plasma, iv, 50 mg/kg, plasma, i.v. bolus 50 mg/kg, read-out: Tβ (terminal elimination half-life) (converted)): 2.95 ± 0.11 h | clearance ([3]; female, BALB/c, mouse, plasma, iv, i.v. bolus 50 mg/kg, read-out: CL (clearance) (converted)): 0.383 mL/min | Vd ([3]; female, BALB/c, mouse, plasma, iv, i.v. bolus 50 mg/kg, read-out: Vss (distribution volume at steady state)): 0.044 ± 0.004 L | half-life ([3]; female, BALB/c, mouse, plasma, mice, read-out: Elimination half-life (converted)): ~3 h | bioavailability ([3]; female, BALB/c, mouse, plasma, oral, 100 mg/kg, oral 100 mg/kg vs i.v. 50 mg/kg, F=AUCpo*doseIV/AUCIV*dosepo): ~100% | Tmax ([3]; female, BALB/c, mouse, plasma, oral, 100 mg/kg, mice, read-out: Time of maximum concentrations (converted)): 0.5 h | AUC ([3]; female, BALB/c, mouse, plasma, po, 100 mg/kg, Plasma, single oral 100 mg/kg, read-out: AUC): 96000 ng·h/mL | Cmax ([3]; female, BALB/c, mouse, plasma, po, 100 mg/kg, Plasma, single oral 100 mg/kg, read-out: Cmax): 34300 ng/mL | AUC ([3]; female, BALB/c, mouse, plasma, po, 100 mg/kg, plasma, 100 mg/kg orally, read-out: AUC): ~100000 ng·h/mL | AUC ([3]; female, BALB/c, mouse, plasma, po, 100 mg/kg, plasma, single oral 100 mg/kg, mice, read-out: AUC (area under time plasma concentration curve)): 96300 ± 10500 ng·h/mL | Cmax ([3]; female, BALB/c, mouse, plasma, po, 100 mg/kg, plasma, single oral 100 mg/kg, read-out: Cmax (maximum reached concentration)): 34300 ± 1940 ng/mL | half-life ([3]; female, BALB/c, mouse, plasma, po, 100 mg/kg, plasma, single oral 100 mg/kg, read-out: Tα (first elimination half-life) (converted)): 1.3 ± 0.43 h | half-life ([3]; female, BALB/c, mouse, plasma, po, 100 mg/kg, plasma, single oral 100 mg/kg, read-out: Tβ (terminal elimination half-life) (converted)): 3.1 ± 0.35 h | Cmax after i.v. compared to oral administration ([3]; i.v. 50 mg/kg vs oral 100 mg/kg): 4 fold | CL (clearance) ([3]; single oral 100 mg/kg): 21 ± 2 mL/h | Vss (distribution volume at steady state) ([3]; single oral 100 mg/kg): 21 ± 3 mL | Potency as CDK inhibitor relative to roscovitine (CDK): 2–4 fold | Stability (concentration of QC samples remaining vs time zero) ([4]; plasma QC samples, 2 months at room temperature, +4°C or −20°C): approximately 97 ± 3.5% | Time for which stable ([4]; room temperature, in both solution and plasma): 2 months | IC50 (tumor cell lines; different cell lines, read-out: Optimal concentration for pharmacological effect in-vitro in different cell lines (reported average IC50)): ~700 nM and 700 nM | Anti-tumor IC50 values found in-vitro (tumor cell lines; in-vitro, reference not given): 0.3 µg/mL | IC50 (casein kinase 1 (CK1)): 610 nM | IC50 (CDK5/p25): 120 nM | AUC ([5]; Adipose tissue): 181 µg·h/g | Beta-HL ([5]; Adipose tissue): 2.40 h | V2/F ([5]; Adipose tissue): 38.2 | AUC ([5]; Bone marrow (10^9 cells = approx. 1 g)): 34 µg·h/g | Beta-HL ([5]; Bone marrow): 1.98 h | V2/F ([5]; Bone marrow): 84.5 | AUC ([5]; Brain): 14 µg·h/g | Beta-HL ([5]; Brain): 2.12 h | V2/F ([5]; Brain): 447.5 | AUC ([5]; Kidney): 145 µg·h/g | Beta-HL ([5]; Kidney): 2.62 h | V2/F ([5]; Kidney): 52.2 | AUC ([5]; Liver): 197 µg·h/g | Beta-HL ([5]; Liver): 2.43 h | V2/F ([5]; Liver): 35.8 | AUC ([5]; Lung): 77 µg·h/g | Beta-HL ([5]; Lung): 2.58 h | V2/F ([5]; Lung): 96.7 | AUC ([5]; Spleen): 40 µg·h/g | Beta-HL ([5]; Spleen): 2.60 h | V2/F ([5]; Spleen): 74.5 | Tissue/plasma exposure ratio (% AUC organ vs. AUC plasma) ([5]; adipose tissue): 180% | Kp ([5]; adipose tissue, adipose tissue, read-out: Tissue/plasma exposure ratio (% AUC organ vs. AUC plasma)): 1.88 | Kp ([5]; bone marrow, bone marrow, concentrations normalized to tissue weight/g, read-out: Tissue/plasma exposure ratio (% AUC organ vs. AUC plasma)): 0.3 | Kp ([5]; brain, brain, read-out: Tissue/plasma exposure ratio (% AUC organ vs. AUC plasma; concentration in brain vs plasma)): 0.15 | Kp ([5]; kidney, kidney, read-out: Tissue/plasma exposure ratio (% AUC organ vs. AUC plasma)): 1.5 | Kp ([5]; liver, liver, read-out: Tissue/plasma exposure ratio (% AUC organ vs. AUC plasma)): 2.05 | Kp ([5]; lung, lung, read-out: Tissue/plasma exposure ratio): 0.8 | Kp ([5]; spleen, spleen, read-out: Tissue/plasma exposure ratio): 0.5 | Cmax ([5]; Adipose tissue): 48700 ng/g | Cmax ([5]; Bone marrow): 10600 ng/g | Cmax ([5]; Brain): 4100 ng/g | Cmax ([5]; Kidney): 36000 ng/g | Cmax ([5]; Liver): 52400 ng/g | Cmax ([5]; Lung): 19300 ng/g | Cmax ([5]; Spleen): 27700 ng/g | Tissue/plasma exposure ratio (% AUC organ vs. AUC plasma) ([5]; liver): 200%
